Data taken from patent US9095585B2, “Bioavailable compositions of amorphous piperidinyl compounds” (Bristol-Myers Squibb Company, priority 2011, dated 2015).

Test: Physicochemical properties of Compound I (ionization, aqueous solubility)

ionization (pH range of 2-11): non-ionizable | aqueous solubility (room temperature): low
Compound: CC(C)[C@@H](NC(=O)NCC(C)(C)O)C(=O)N1CC[C@](O)(c2ccc(Cl)cc2)C(C)(C)C1 [Compound I]
